Data as given in the NIST ThermoML archive (doi:10.1021/je200673a).
± gives the expanded uncertainty stated by the source.

Settings: Crystal; Adiabatic calorimetry

Triple point temperature: 332.02 ± 0.05 K
SMILES: C(#Cc1ccccc1)c1ccccc1 [1,2-diphenylethyne]
